Measurements published in patent US9580463B2 (BRISTOL-MYERS SQUIBB COMPANY, priority 2013, dated 2017).
Read-outs that look alike come from different tables or passages of the source.

Legend:
[1] = tested on: HCV genotype 1b (Con1) replicon in HUH-7 cells; assay: HCV replicon luciferase reporter assay, genotype 1b; type: cell-based; conditions: Hepatitis C virus, 72 h, genotype 1b replicon, 3 days incubation
Method in brief: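 Twenty-point, threefold compound titrations (0.5% DMSO) were incubated 3 days at 37 °C with 3.0×10^3 HUH-7 cells/well in 4% FCS. The cells stably carried luciferase replicons: genotype 1b Con1 (S1179I) or 1a H77 (NS3 P1496L, NS5A S2204I). Renilla signal was read after 2 h with 7.5 μM EnduRen, and EC50 was taken from a four-parameter logistic fit. Cytotoxicity (CC50) was measured by Cell Titer-Blue, 8 h.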

[2] = tested on: HCV genotype 1a (H77 strain) replicon in HUH-7 cells; assay: HCV replicon luciferase reporter assay, genotype 1a; type: cell-based; conditions: Hepatitis C virus, 72 h, genotype 1a replicon, 3 days incubation
Text: An HCV replicon whole cell system was established as described by Lohmann V, Korner F, Koch J, Herian U, Theilmann L, Bartenschlager R., Science 285(5424):110-3 (1999) and modified to introduce a luciferase reporter, as first described by Krieger et al (Krieger N, Lohmann V, and Bartenschlager R, J. Virol. 75(10):4614-4624 (2001)). CDNA encoding a humanized form of the Renilla luciferase gene and a linker sequence fused directly to the 3′-end of the luciferase gene were introduced into the replicon construct using an Asc1 restriction site located in core, directly upstream of the neomycin marker gene. The adaptive mutation at position 1179 (serine to isoleucine) was also introduced (Blight K J, Kolykhalov, A A, Rice, C M, Science 290(5498):1972-1974). A stable cell line constitutively expressing this HCV replicon construct was generated by first linearizing plasmid DNAs with ScaI. RNA transcripts were synthesized in vitro using the T7 MegaScript transcription kit (Ambion, Austin, Tex.) according to manufacturer's directions. In vitro transcripts of the cDNA were transfected into the human hepatoma cell line, HUH-7. […] Resulting cell lines were characterized for positive and negative strand RNA production and protein production over time.
A stable HCV replicon luciferase reporter cell line representing the genotype 1a H77 strain (Yanagi M, Purcell R H, Emerson S U, et al. Transcripts from a single full-length cDNA clone of hepatitis C virus are infectious when directly transfected into the liver of a chimpanzee. Proc Natl Acad Sci USA 1997; 94(16):8738-8743) was generated as described previously for the genotype 1b (Con1) replicon luciferase cell line. The replicon construct was modified by introducing mutations were introduced into the genes encoding the NS3 helicase domain (proline replaced by leucine at position 1496) and NS5A (serine to isoleucine at position 2204) to improve replication in cell culture.
HCV replicon luciferase assays were developed to monitor the inhibitory effects of compounds described in the disclosure on HCV genotypes 1a and 1b viral replication. HUH-7 cells, constitutively expressing the HCV replicon, were grown in Dulbecco's Modified Eagle Media (DMEM) (Gibco-BRL) containing 10% Fetal calf serum (FCS) (Sigma) and 1 mg/mL G418 (Gibco-BRL). Compounds were serially diluted 3 folds in DMSO for a twenty-point titration and subsequently transferred to sterile 384-well tissue-culture treated plates (Corning cat #3571). The plates were then seeded with 50 μL of cells at a density of 3.0×10^3 cells/well in DMEM containing 4% FCS (final DMSO concentration at 0.5%). After 3 days incubation at 37° C., cells were analyzed for Renilla Luciferase activity using the EnduRen as substrate (Promega cat #E6485). The EnduRen substrate was diluted in DMEM and then added to the plates to a final concentration of 7.5 μM. The plates were incubated for 2 hrs at 37° C. and then read immediately for 30 seconds with Viewlux Imager (PerkinElmer) using a luminescence program. To assess cytotoxicity of compounds, CC50 values were generated by multiplexing the EnduRen-containing plates with Cell Titer-Blue (Promega, cat # G8082). Cell-Titer Blue (3 μL) was added to each well and incubated for 8 hrs at 37° C. The fluorescence signal from each well was read, with an excitation wavelength at 525/10 nm and an emission wavelength of 598/10 nm, using the Viewlux Imager.
The EC50 values for compounds were calculated by using a four-parameter logistic equation: y=A+((B−A)/(1+((C/x)^D))), where A and B denotes minimal and maximal % inhibition, respectively, C is the EC50, D is the hill slope and x represents compound concentration.

SMILES | EC50 ([1]; read-out: LE_1b (EC50, range)) | EC50 ([2]; read-out: LE_1a (EC50, range)) | EC50 ([1]; read-out: LE_1b (EC50)) | EC50 ([2]; read-out: LE_1a (EC50))
COC[C@@H]1CCCC/C=C\[C@@H]2C[C@@]2(C(=O)NS(=O)(=O)C2CC2)NC(=O)[C@@H]2C[C@@H](Oc3nc4cc(OC)ccc4nc3C(F)(F)F)CN2C(=O)[C@H]1NC(=O)OC(C)(C)C(F)(F)F [Compound 1021, 1,1,1-trifluoro-2-methylpropan-2-yl ((2R,6S,7R,13aS,14aR,16aS,Z)-14a-((cyclopropylsulfonyl)carbamoyl)-2-((7-methoxy-3-(trifluoromethyl)quinoxalin-2-yl)oxy)-7-(methoxymethyl)-5,16-dioxo-1,2,3,5,6,7,8,9,10,11,13a,14,14a,15,16,16a-hexadecahydrocyclopropa[e]pyrrolo[1,2-a][1,4]diazacyclopentadecin-6-yl)carbamate] | 0.1 to 0.5 nM | 1.01 to 5 nM |  | 
COC[C@@H]1C[C@H](C)CC/C=C\[C@@H]2C[C@@]2(C(=O)NS(=O)(=O)C2(C)CC2)NC(=O)[C@@H]2C[C@@H](Oc3nc4cc(OC)ccc4nc3C(F)(F)F)CN2C(=O)[C@H]1NC(=O)OC(C)(C)C(F)(F)F [Compound 1032, 1,1,1-trifluoro-2-methylpropan-2-yl ((2R,6S,7R,9R,13aS,14aR,16aS,Z)-2-((7-methoxy-3-(trifluoromethyl)quinoxalin-2-yl)oxy)-7-(methoxymethyl)-9-methyl-14a-(((1-methylcyclopropyl)sulfonyl)carbamoyl)-5,16-dioxo-1,2,3,5,6,7,8,9,10,11,13a,14,14a,15,16,16a-hexadecahydrocyclopropa[e]pyrrolo[1,2-a][1,4]diazacyclopentadecin-6-yl)carbamate] | 0.1 to 0.5 nM | 0.51 to 1 nM |  | 
COC[C@@H]1C[C@H](C)CC/C=C\[C@@H]2C[C@@]2(C(=O)NS(=O)(=O)C2(C)CC2)NC(=O)[C@@H]2C[C@@H](Oc3ncc(OC)c4ccccc34)CN2C(=O)[C@H]1NC(=O)OC(C)(C)C [Compound 1010, tert-butyl ((2R,6S,7R,9R,13aS,14aR,16aS,Z)-2-((4-methoxyisoquinolin-1-yl)oxy)-7-(methoxymethyl)-9-methyl-14a-(((1-methylcyclopropyl)sulfonyl)carbamoyl)-5,16-dioxo-1,2,3,5,6,7,8,9,10,11,13a,14,14a,15,16,16a-hexadecahydrocyclopropa[e]pyrrolo[1,2-a][1,4]diazacyclopentadecin-6-yl)carbamate] | 0.1 to 0.5 nM | 0.51 to 1 nM |  | 
COC[C@@H]1C[C@H](C)CC/C=C\[C@@H]2C[C@@]2(C(=O)NS(=O)(=O)C2(CF)CC2)NC(=O)[C@@H]2C[C@@H](Oc3nc4cc(OC)ccc4nc3C(C)C)CN2C(=O)[C@H]1NC(=O)OC(C)(C)C [Compound 1025, tert-butyl ((2R,6S,7R,9R,13aS,14aR,16aS,Z)-14a-(((1-(fluoromethyl)cyclopropyl)sulfonyl)carbamoyl)-2-((3-isopropyl-7-methoxyquinoxalin-2-yl)oxy)-7-(methoxymethyl)-9-methyl-5,16-dioxo-1,2,3,5,6,7,8,9,10,11,13a,14,14a,15,16,16a-hexadecahydrocyclopropa[e]pyrrolo[1,2-a][1,4]diazacyclopentadecin-6-yl)carbamate] | 1.01 to 5 nM | 5.01 to 35 nM | 1.38 nM | 7.01 nM
COC[C@@H]1C[C@@H](C)CC/C=C\[C@@H]2C[C@@]2(C(=O)NS(=O)(=O)C2(C)CC2)NC(=O)[C@@H]2C[C@@H](Oc3nc4cc(OC)ccc4nc3C(C)C)CN2C(=O)[C@H]1NC(=O)OC(C)(C)C [Compound 1029, tert-butyl ((2R,6S,7R,9S,13aS,14aR,16aS,Z)-2-((3-isopropyl-7-methoxyquinoxalin-2-yl)oxy)-7-(methoxymethyl)-9-methyl-14a-(((1-methylcyclopropyl)sulfonyl)carbamoyl)-5,16-dioxo-1,2,3,5,6,7,8,9,10,11,13a,14,14a,15,16,16a-hexadecahydrocyclopropa[e]pyrrolo[1,2-a][1,4]diazacyclopentadecin-6-yl)carbamate] | 0.51 to 1 nM | 1.01 to 5 nM | 0.63 nM | 1.78 nM
COC[C@@H]1C[C@@H](C)CC/C=C\[C@@H]2C[C@@]2(C(=O)NS(=O)(=O)C2(C)CC2)NC(=O)[C@@H]2C[C@@H](Oc3nccc4cc(OC)ccc34)CN2C(=O)[C@H]1NC(=O)OC(C)(C)C [Compound 1006, tert-butyl ((2R,6S,7R,9S,13aS,14aR,16aS,Z)-2-((6-methoxyisoquinolin-1-yl)oxy)-7-(methoxymethyl)-9-methyl-14a-(((1-methylcyclopropyl)sulfonyl)carbamoyl)-5,16-dioxo-1,2,3,5,6,7,8,9,10,11,13a,14,14a,15,16,16a-hexadecahydrocyclopropa[e]pyrrolo[1,2-a][1,4]diazacyclopentadecin-6-yl)carbamate] | 1.01 to 5 nM | 5.01 to 35 nM |  | 
COC[C@@H]1C[C@H](C)CC/C=C\[C@@H]2C[C@@]2(C(=O)NS(=O)(=O)C2(C)CC2)NC(=O)[C@@H]2C[C@@H](Oc3nc4cc(OC)ccc4nc3C(C)C)CN2C(=O)[C@H]1NC(=O)OC(C)(C)C(F)(F)F [Compound 1034, 1,1,1-trifluoro-2-methylpropan-2-yl ((2R,6S,7R,9R,13aS,14aR,16aS,Z)-2-((3-isopropyl-7-methoxyquinoxalin-2-yl)oxy)-7-(methoxymethyl)-9-methyl-14a-(((1-methylcyclopropyl)sulfonyl)carbamoyl)-5,16-dioxo-1,2,3,5,6,7,8,9,10,11,13a,14,14a,15,16,16a-hexadecahydrocyclopropa[e]pyrrolo[1,2-a][1,4]diazacyclopentadecin-6-yl)carbamate] | 0.51 to 1 nM | 1.01 to 5 nM |  | 
COC[C@@H]1C[C@H](C)CC/C=C\[C@@H]2C[C@@]2(C(=O)NS(=O)(=O)C2CC2)NC(=O)[C@@H]2C[C@@H](Oc3nccc4cc(OC)ccc34)CN2C(=O)[C@H]1NC(=O)OC(C)(C)C [Compound 1009, tert-butyl ((2R,6S,7R,9R,13aS,14aR,16aS,Z)-14a-((cyclopropylsulfonyl)carbamoyl)-2-((6-methoxyisoquinolin-1-yl)oxy)-7-(methoxymethyl)-9-methyl-5,16-dioxo-1,2,3,5,6,7,8,9,10,11,13a,14,14a,15,16,16a-hexadecahydrocyclopropa[e]pyrrolo[1,2-a][1,4]diazacyclopentadecin-6-yl)carbamate] | 1.01 to 5 nM | 1.01 to 5 nM |  | 
COC[C@@H]1C[C@@H](C)CC/C=C\[C@@H]2C[C@@]2(C(=O)NS(=O)(=O)C2CC2)NC(=O)[C@@H]2C[C@@H](Oc3nc4cc(OC)ccc4nc3C(F)(F)F)CN2C(=O)[C@H]1NC(=O)OC(C)(C)C(F)(F)F [Compound 1042, 1,1,1-trifluoro-2-methylpropan-2-yl ((2R,6S,7R,9S,13aS,14aR,16aS,Z)-14a-((cyclopropylsulfonyl)carbamoyl)-2-((7-methoxy-3-(trifluoromethyl)quinoxalin-2-yl)oxy)-7-(methoxymethyl)-9-methyl-5,16-dioxo-1,2,3,5,6,7,8,9,10,11,13a,14,14a,15,16,16a-hexadecahydrocyclopropa[e]pyrrolo[1,2-a][1,4]diazacyclopentadecin-6-yl)carbamate] | 1.01 to 5 nM | 5.01 to 35 nM |  | 
